From patent publication US10618898B2, “Hydroxyl purine compounds and use thereof” (GUANGDONG RAYNOVENT BIOTECH CO., LTD., priority 2015, dated 2020)
Where two headings read alike, the source gives them in different places.

Legend:
[1] = biological target: T1, Recombinant full-length human PDE2A protein (Homo sapiens, UniProt O00408); experiment: In vitro PDE2 phosphodiesterase inhibitory activity (fluorescence polarization, Transcreener AMP2/GMP2); assay type: biochemical
T1 construct: Recombinant full-length human PDE2A protein; GST (N); host or cells: insect Sf9 cells (baculovirus)
T1 sequence (O00408 whole entry): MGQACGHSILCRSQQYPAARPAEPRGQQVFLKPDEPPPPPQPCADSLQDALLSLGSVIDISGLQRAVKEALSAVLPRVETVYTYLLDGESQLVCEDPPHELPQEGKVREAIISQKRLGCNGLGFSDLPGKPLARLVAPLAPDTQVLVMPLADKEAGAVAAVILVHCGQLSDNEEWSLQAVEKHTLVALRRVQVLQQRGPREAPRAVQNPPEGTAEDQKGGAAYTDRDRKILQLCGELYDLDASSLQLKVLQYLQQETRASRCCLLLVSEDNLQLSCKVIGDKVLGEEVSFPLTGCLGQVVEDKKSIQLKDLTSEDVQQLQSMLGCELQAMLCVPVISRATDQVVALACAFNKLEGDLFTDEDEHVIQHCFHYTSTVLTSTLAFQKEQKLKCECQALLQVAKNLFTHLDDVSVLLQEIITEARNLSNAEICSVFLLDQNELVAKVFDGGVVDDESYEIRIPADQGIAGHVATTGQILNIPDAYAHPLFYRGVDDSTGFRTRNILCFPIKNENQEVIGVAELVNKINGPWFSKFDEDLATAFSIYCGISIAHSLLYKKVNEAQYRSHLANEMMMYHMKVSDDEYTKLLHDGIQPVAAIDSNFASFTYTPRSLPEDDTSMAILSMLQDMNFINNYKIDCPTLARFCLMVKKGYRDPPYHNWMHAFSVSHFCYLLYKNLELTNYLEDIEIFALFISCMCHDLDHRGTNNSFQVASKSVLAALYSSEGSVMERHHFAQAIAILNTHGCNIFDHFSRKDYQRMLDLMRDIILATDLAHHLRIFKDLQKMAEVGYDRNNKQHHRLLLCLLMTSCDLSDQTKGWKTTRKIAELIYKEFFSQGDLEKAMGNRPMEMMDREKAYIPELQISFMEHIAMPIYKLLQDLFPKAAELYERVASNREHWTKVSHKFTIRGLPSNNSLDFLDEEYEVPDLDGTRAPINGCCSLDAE
Method: Experiment Objective: Determining the concentration of AMP/GMP produced in the reaction system by way of detecting the AlexaFluor 633 fluorescent dye substituted on AMP/GMP antibody by fluorescence polarization assay, and thereby to calculate the IC50 value of PDE2 phosphodiesterase inhibition by the test compound. Experimental Materials: Detecting buffer solution: 10 mM Tris-HCl, pH 7.5, 5 mM MgCl2, 0.01% Brij 35, 1 mM DTT, and 1% DMSO. Enzyme: Recombinant full-length human PDE2A protein with an N-terminal GST-tag expressed in insect Sf9 cells by baculovirus Substrate: 1 μM cGMP Detection System: Transcreener® AMP^2/GMP^2 antibody, AMP2/GMP2 AlexaFluor 633 fluorescent dye Experimental Operation:
The enzyme solution was prepared by using the freshly prepared buffer solution, and then was added into the reaction wells. The DMSO solution of the test compound was added via Echo550, a nanoliter-scale contactless acoustic liquid transferring system, and then pre-incubated at room temperature for 10 minutes. The substrate (1 μLM cGMP) was added to initiate the reaction at room temperature for one hour. The detection system (Transcreener® AMP^2/GMP^2 antibody, AMP2/GMP2 AlexaFluor 633 fluorescent dye) was then added, and the reaction was conducted at room temperature for 90 minutes. Fluorescence polarization was then detected by using Ex/Em 620/688.
The intensity of fluorescence polarization was converted to nM concentration by the AMP/GMP standard curve, and then calculate the relative enzyme activity inhibition relative to the DMSO blank. The IC50 values and curves were calculated by using the Prism software package (GraphPad Software, San Diego Calif., USA)

TNF-α = experiment: In vitro induction of TNF-α in rat blood by LPS (ELISA); assay type: cell-based; details: test compound final concentration 100 μM, 5 hours, read-out: Rate of TNFα inhibition
Method: Experiment Objective: Determining the impact of the compounds on induction of TNF-α in rat blood by LPS in vitro, and evaluating the effect of the compounds on inhibiting induction of TNF-α in rat blood by LPS.
Sprague Dawley rats (male, 210-260 g, 8-10 weeks old, Shanghai SLAC)
Rat TNF-alpha Quantikine ELISA Kit (R&D, # SRTA00)
The test compound solutions were prepared at a concentration of 1 mM. 40 μl of each of the solutions was added into a 48-well cell culture plate (at the final concentration of 100 μM). After the rat was anesthetized with isoflurane, the blood was collected from the heart (heparin for anticoagulation). The blood was added into the 48-well plate containing the test compound, in the amount of 320 μL per well. The 48-well plate was placed into a cell incubator, and then taken out after 30 minutes of incubation. Then, 40 μL of LPS solution (100 μg/ml) was added and mixed. The 48-well plate was placed into the incubator for further incubation. After 5 hours, the 48-well plate was taken out and the blood sample was transferred to a 1.5 mL centrifuge tube, followed by centrifugation in a centrifuge (4,500 rpm, 4° C., 5 minutes). The supernatant was separated and the plasma was obtained. […] In the next day, the TNF-α level of the plasma samples was determined by using the R&D ELISA kit in accordance with the instructions.

[2] = human PDE2A, substrate 1 μM cGMP, fluorescence polarization, read-out: PDE2 phosphodiesterase inhibitory activity

SMILES | IC50 [1, 2] [µM] | IC50 [1] [µM] | inhibition at 100 µM (TNF-α) [%]
CCC1(CCn2c(=O)c3c(ncn3C)n(C)c2=O)CCOC1 (single isomer, unassigned) [Example 12 Isomer 2, 1-(2-(3-Ethyltetrahydro-furan-3-yl)ethyl)-3,7-dimethyl-1H-purin-2,6-(3H,7H)-dione] | 10 to 50 | – | –
Cn1cnc2c1c(=O)n(CC1(C)COC1)c(=O)n2C [Example 3, 3,7-Dimethyl-1-((3-methyloxetan-3-yl)methyl)-1H-purin-2,6(3H, 7H)-dione] | – | 10 to 50 | 60 to 80
CCC1(Cn2c(=O)c3c(ncn3C)n(C)c2=O)COC1 [Example 4, 1-((3-Ethyloxetan-3-yl)methyl)3,7-dimethyl-1H-purin-2,6(3H,7H)-dione] | 10 to 50 | – | –
CCC1OCC1CCn1c(=O)c2c(ncn2C)n(C)c1=O (centres unmarked) [Example 5, 1-(2-(2-Ethyloxetan-3-yl)ethyl)-3,7-dimethyl-1H-purin-2,6(3H,7H)-dione] | 10 to 50 | – | –
Cn1cnc2c1c(=O)n(CC1(C)CCOCC1)c(=O)n2C [Example 11 Isomer 1, 3,7-Dimethyl-1-((4-methyltetrahydro-2H-pyran-4-yl)methyl)-1H-purin-2,6-(3H,7H)-dione] | 10 to 50 | – | –
CCC1(Cn2c(=O)c3c(ncn3C)n(C)c2=O)CCOCC1 [Example 12 Isomer 1, 1-((4-Ethyltetrahydro-2H-pyran-4-yl)methyl)-3,7-dimethyl-1H-purin-2,6-(3H,7H)-dione] | 10 to 50 | – | –
C[C@H]1CC(CCn2c(=O)c3c(ncn3C)n(C)c2=O)C[C@H](C)O1 (stereo partly drawn) [Example 14, 1-[2-((2S,6S)-2,6-dimethyltetrahydro-2H-pyran-4-yl)-ethyl]-3,7-dimethyl-1H-2,6(3H,7H)-dione] | 10 to 50 | – | –
CCC1COCCC1CCn1c(=O)c2c(ncn2C)n(C)c1=O (centres unmarked) [Example 15, 1-(2-(3-Ethyltetrahydro-2H-pyran-4-yl)ethyl)-3,7-dimethyl-1H-purin-2,6-(3H,7H)-dione] | 10 to 50 | – | –
CCC1CC(CCn2c(=O)c3c(ncn3C)n(C)c2=O)CCO1 (centres unmarked) [Example 16] | 10 to 50 | – | –
Cn1cnc2c1c(=O)n(CCN1CCOCC1)c(=O)n2C [Example 17, 3,7-Dimethyl-1-(2-morpholinoethyl)-purin-2,6-dione] | – | – | < 60
COC1CCC(Cn2c(=O)c3c(ncn3C)n(C)c2=O)CC1 (centres unmarked) [Example 18, 1((-4-Methoxycyclohexyl)methyl)-3,7-dimethyl-1H-purin-2,6-(3H,7H)-dione] | 10 to 50 | – | –
C[C@@H]1CC(CCn2c(=O)c3c(ncn3CC(F)(F)F)n(C)c2=O)C[C@@H](C)O1 (stereo partly drawn) [Example 20, 1-(2-((2R,6R)-2,6-dimethyltetrahydro-2H-pyran-4-yl)ethyl)-3-methyl-7-(2,2,2-trifluoroethyl)-1H-purin-2,6 (3H,7H)-dione] | 10 to 50 | – | –
CC(C)n1cnc2c1c(=O)n(CCC1C[C@@H](C)O[C@H](C)C1)c(=O)n2C (stereo partly drawn) [Example 21, 1-(2-((2R,6R)-2,6-dimethyltetrahydro-2H-pyran-4-yl)ethyl)yl-7-isopropyl-3-methyl-1H-purin-2,6(3H,7H)-dione] | 10 to 50 | – | –
C[C@@H]1CC(CCn2c(=O)c3c(ncn3CC3CC3)n(C)c2=O)C[C@@H](C)O1 (some centres unmarked) [Example 23] | 10 to 50 | – | –
CC(C)Cn1cnc2c1c(=O)n(CCC1C[C@@H](C)O[C@H](C)C1)c(=O)n2C (stereo partly drawn) [Example 26, 1-(2-((2R,6R)-2,6-dimethyltetrahydro-2H-pyran-4-yl)ethyl)-7-isobutyl-3-methyl-1H-purin-2,6(3H, 7H)-dione] | 10 to 50 | – | –
Cn1c(=O)n(CC2(C)COC2)c(=O)c2c1cnn2CC1CC1 [Example 33, 1-(Cyclopropylmethyl)-4-methyl-6-((3-methyloxetan-3-yl)methyl)-pyrazolo[4,3-d]pyrimidin-5,7-dione] | 10 to 50 | – | –
